Results reported in ChEMBL document CHEMBL4483862, “Open-source discovery of chemical leads for next-generation chemoprotective antimalarials” (2018).

System: Plasmodium berghei
Assay: Luciferase/luciferin-expressing antifolate-resistant parasites were used to infect a culture of HepG2 cells that were pre-incubated with compounds. Infected hepatocytes emit light due to the luciferase reaction. Assay results are presented as the percent inhibition of light emission compared to control. […]
Assay type: functional
Conditions: sporozoite; for IC90: read-out: LUCIFERASE INFECTION ASSAY - IC90
[1] = read-out: LUCIFERASE INFECTION ASSAY - IC50

SMILES | IC90 [µM] | further results
Cc1ccc(C)c(S(=O)(=O)N2CCN(C(=O)c3[nH]nc4ccccc34)CC2)c1 | 1.72 | IC50 (PBLUC_HILL_SLOPE 2.18, PBLUC_R_SQUARED 0.737, read-out: LUCIFERASE INFECTION ASSAY - IC50): 0.627 µM
Cc1ccc(C(=O)/C=C/c2cn(C)c(=O)n(C)c2=O)c(C)c1 | > 10 | IC50 (PBLUC_HILL_SLOPE 10.4, PBLUC_R_SQUARED 0.461, read-out: LUCIFERASE INFECTION ASSAY - IC50): 8.74 µM
COc1ccc(-c2nc(C)c(C(=O)NCc3ccc(-n4cccn4)nc3)s2)cc1 | > 10 | IC50 [1]: > 10 µM
COC(=O)c1c(C)[nH]c(C2=NNC(=NC3CC3)SC2)c1C | 0.0583 | IC50 (FFLUC_HILL_SLOPE 1.61, FFLUC_R_SQUARED 0.895, PBLUC_HILL_SLOPE 1.62, PBLUC_R_SQUARED 0.572, read-out: LUCIFERASE INFECTION ASSAY - IC50): 0.015 µM
CCCCn1c(N)c(N(CC(C)C)C(=O)CCc2ncc(-c3ccc(C)cc3)o2)c(=O)[nH]c1=O | > 10 | IC50 [1]: > 10 µM
C=CCNC(=S)N1CCc2sccc2C1c1ccc(OC)cc1 (stereo not given) | > 9.58 | IC50 (PBLUC_HILL_SLOPE 0.135, PBLUC_R_SQUARED 0.112, read-out: LUCIFERASE INFECTION ASSAY - IC50): > 9.58 µM
COc1ccc(-c2nnc3ccc(-c4ccc5ncccc5c4)cn23)cc1OC | 0.0668 | IC50 (HEPG2TOX_HILL_SLOPE 0.239, HEPG2TOX_R_SQUARED 0.342, PBLUC_HILL_SLOPE 2.22, PBLUC_R_SQUARED 0.642, read-out: LUCIFERASE INFECTION ASSAY - IC50): 0.0248 µM
CC(C)c1ccc(CS(=O)(=O)C(C)C(=O)NC2CCCC2)cc1 (stereo not given) | > 10 | IC50 [1]: > 10 µM
CC(C)(C)OC(=O)NC1CCN(C(=O)Nc2cc(Cl)cc(Cl)c2)CC1 | > 8.5 | IC50 (PBLUC_HILL_SLOPE 7.08, PBLUC_R_SQUARED 0.106, read-out: LUCIFERASE INFECTION ASSAY - IC50): > 8.5 µM
O=C1C=C(NCCSCc2ccccc2Cl)CC(c2ccc3c(c2)OCO3)C1 (stereo not given) | > 7.93 | IC50 (HEPG2TOX_HILL_SLOPE 7.83, HEPG2TOX_R_SQUARED 0.476, PBLUC_HILL_SLOPE 2.36, PBLUC_R_SQUARED 0.149, read-out: LUCIFERASE INFECTION ASSAY - IC50): 6.56 µM
COc1cccc(CC(=O)N2CCCC(C(=O)NCC3CC3)C2)c1 (stereo not given) | > 10 | IC50 [1]: > 10 µM
Cn1ccc(NC(=O)c2cccc(S(=O)(=O)N(Cc3ccccc3)c3ccccc3Cl)c2)n1 | > 10 | IC50 (PBLUC_HILL_SLOPE 2.72, PBLUC_R_SQUARED 0.559, read-out: LUCIFERASE INFECTION ASSAY - IC50): 4.88 µM
CC(=C\c1ccc(Cl)cc1)/C(C)=N/O [AP18 5] | 5.3 | IC50 (HEPG2TOX_HILL_SLOPE 1.12, HEPG2TOX_R_SQUARED 0.98, PBLUC_HILL_SLOPE 2.33, PBLUC_R_SQUARED 0.772, read-out: LUCIFERASE INFECTION ASSAY - IC50): 2.07 µM
C/C(=N\Nc1nc2ccccc2[nH]1)c1ccc(Cl)s1 | > 10 | IC50 (PBLUC_HILL_SLOPE 13.6, PBLUC_R_SQUARED 0.0664, read-out: LUCIFERASE INFECTION ASSAY - IC50): 9.32 µM
Cn1c(=O)/c(=C\c2cn(-c3ccccc3)nc2-c2ccccc2)s/c1=C\C(=O)C(C)(C)C | > 10 | IC50 (FFLUC_HILL_SLOPE 11.8, FFLUC_R_SQUARED 0.797, read-out: LUCIFERASE INFECTION ASSAY - IC50): > 10 µM
CC(C)N1/C(=C/c2ccc3c(c2)OCCO3)C(=O)c2ccccc2S1(=O)=O | > 8.56 | IC50 (HEPG2TOX_HILL_SLOPE 4.1, HEPG2TOX_R_SQUARED 0.916, PBLUC_HILL_SLOPE 3.33, PBLUC_R_SQUARED 0.555, read-out: LUCIFERASE INFECTION ASSAY - IC50): 5.07 µM
O=C(NNC(=S)Nc1cccc(C(F)(F)F)c1)c1ccc(OC(F)(F)F)cc1 | > 7.8 | IC50 [1]: > 7.8 µM
CC1=C/C(=N\NC(=O)c2ccc(Br)cc2)CC(C)(C)C1 | > 10 | IC50 (PBLUC_HILL_SLOPE 2.58, PBLUC_R_SQUARED 0.715, read-out: LUCIFERASE INFECTION ASSAY - IC50): 6.68 µM
COc1ccc(Nc2nc(NCC3CC3)nc3cc(-c4ccccc4)sc23)cc1OC | > 7.63 | IC50 (HEPG2TOX_HILL_SLOPE 1.76, HEPG2TOX_R_SQUARED 0.98, PBLUC_HILL_SLOPE 10.6, PBLUC_R_SQUARED 0.159, read-out: LUCIFERASE INFECTION ASSAY - IC50): 6.32 µM
COc1ccc(NC(=O)c2cccc(Cl)c2)cc1OCc1cccnc1 | > 10 | IC50 [1]: > 10 µM

SMILES | IC90 [µM] | further results
COc1ccc(OCc2nc(-c3ccc4c(c3)C(C)(C)CCC4(C)C)cs2)cc1 | > 8.1 | IC50 [1]: > 8.1 µM
CC(Nc1ncnc2scc(-c3ccccc3)c12)c1ccc(S(C)(=O)=O)cc1 (stereo not given) | 7.11 | IC50 (HEPG2TOX_HILL_SLOPE 1.17, HEPG2TOX_R_SQUARED 0.977, PBLUC_HILL_SLOPE 2.44, PBLUC_R_SQUARED 0.865, read-out: LUCIFERASE INFECTION ASSAY - IC50): 2.89 µM
Cc1ccc(-c2ccccc2C(=O)OCC(=O)Nc2ccc(C)c(Cl)c2)cc1 | > 10 | IC50 (FFLUC_HILL_SLOPE 49.8, FFLUC_R_SQUARED 0.336, read-out: LUCIFERASE INFECTION ASSAY - IC50): > 10 µM
CCN(CC)S(=O)(=O)c1ccc(N/N=C2/C=CC(=O)c3ncccc32)cc1 | > 10 | IC50 [1]: > 10 µM
COC(=O)c1cc(Br)ccc1NC(=O)CCNC(=O)c1cccc(C)c1 | > 10 | IC50 [1]: > 10 µM
CCCCCCCCCONC(=O)Nc1ccc([N+](=O)[O-])cc1 | > 10 | IC50 (FFLUC_HILL_SLOPE 17.3, FFLUC_R_SQUARED 0.0693, PBLUC_HILL_SLOPE 3, PBLUC_R_SQUARED 0.451, read-out: LUCIFERASE INFECTION ASSAY - IC50): 6.31 µM
O=[N+]([O-])c1cnc(Sc2ccc(C(F)(F)F)cn2)s1 | 10.5 | IC50 (FFLUC_HILL_SLOPE 78.7, FFLUC_R_SQUARED 0.547, HEPG2TOX_HILL_SLOPE 11.7, HEPG2TOX_R_SQUARED 0.958, PBLUC_HILL_SLOPE 15.1, PBLUC_R_SQUARED 0.404, read-out: LUCIFERASE INFECTION ASSAY - IC50): 9.04 µM
COc1ccc(CC(=O)N2CCN(C)c3nc4ccccc4nc32)cc1F | 9.57 | IC50 (HEPG2TOX_HILL_SLOPE 1.64, HEPG2TOX_R_SQUARED 0.943, PBLUC_HILL_SLOPE 1.87, PBLUC_R_SQUARED 0.437, read-out: LUCIFERASE INFECTION ASSAY - IC50): 2.96 µM
CN(C)c1cccc(-c2cnc3cnc(-c4cccc(NS(C)(=O)=O)c4)cn23)c1 | > 8.1 | IC50 (HEPG2TOX_HILL_SLOPE 7.18, HEPG2TOX_R_SQUARED 0.638, PBLUC_HILL_SLOPE 3.24, PBLUC_R_SQUARED 0.204, read-out: LUCIFERASE INFECTION ASSAY - IC50): 4.82 µM
NC(c1ccccc1)c1csc(Nc2ccc(-c3ccccc3)nn2)n1 (stereo not given) | 3.73 | IC50 (PBLUC_HILL_SLOPE 11.1, PBLUC_R_SQUARED 0.371, read-out: LUCIFERASE INFECTION ASSAY - IC50): 3.06 µM
CSc1sc(C(=O)NN=C(C)C)c2c1C(O)CCC2 (stereo not given) | > 11.1 | IC50 (HEPG2TOX_HILL_SLOPE 6.67, HEPG2TOX_R_SQUARED 0.767, PBLUC_HILL_SLOPE 1.8, PBLUC_R_SQUARED 0.584, read-out: LUCIFERASE INFECTION ASSAY - IC50): 10.2 µM
O=C(NNc1ncc(C(F)(F)F)cc1Cl)c1c(Cl)cccc1Cl | > 8.58 | IC50 (HEPG2TOX_HILL_SLOPE 3.04, HEPG2TOX_R_SQUARED 0.858, PBLUC_HILL_SLOPE 3.51, PBLUC_R_SQUARED 0.0313, read-out: LUCIFERASE INFECTION ASSAY - IC50): 6.25 µM
O=C(CSCc1nc(-c2ccc(Cl)cc2)cs1)NNS(=O)(=O)c1ccc(Cl)cc1 | > 6.76 | IC50 (HEPG2TOX_HILL_SLOPE 8.04, HEPG2TOX_R_SQUARED 0.486, read-out: LUCIFERASE INFECTION ASSAY - IC50): > 6.76 µM
C=c1onc(-c2c(F)cccc2Cl)c1=C1NC(c2ccccn2)=NO1 | > 9.25 | IC50 (PBLUC_HILL_SLOPE 3.2, PBLUC_R_SQUARED 0.36, read-out: LUCIFERASE INFECTION ASSAY - IC50): 6.04 µM
O=S(=O)(Nc1cc(C(F)(F)F)cc(C(F)(F)F)c1)c1cc(F)c(Br)cc1F | 5.67 | IC50 (HEPG2TOX_HILL_SLOPE 2.12, HEPG2TOX_R_SQUARED 0.942, PBLUC_HILL_SLOPE 3.41, PBLUC_R_SQUARED 0.612, read-out: LUCIFERASE INFECTION ASSAY - IC50): 2.98 µM
Cc1cc(C(=O)COC(=O)c2ccc[nH]c2=O)c(C)n1CC1CCCO1 (stereo not given) | > 10 | IC50 (FFLUC_HILL_SLOPE 9.51, FFLUC_R_SQUARED 0.378, PBLUC_HILL_SLOPE 2.55, PBLUC_R_SQUARED 0.111, read-out: LUCIFERASE INFECTION ASSAY - IC50): 6.62 µM
COc1ccc(Nc2nccc3nc(-c4ccc(C)cc4)[nH]c23)cc1 | > 10 | IC50 (HEPG2TOX_HILL_SLOPE 7.88, HEPG2TOX_R_SQUARED 0.839, PBLUC_HILL_SLOPE 3.67, PBLUC_R_SQUARED 0.381, read-out: LUCIFERASE INFECTION ASSAY - IC50): 7.4 µM
CCCCCc1ccc(C(=O)Nc2nc3ccc(C)cn3c2C(=O)NCCCC)cc1 | > 7.85 | IC50 (PBLUC_HILL_SLOPE 2.82, PBLUC_R_SQUARED 0.514, read-out: LUCIFERASE INFECTION ASSAY - IC50): 4.14 µM
CCOc1ccc2c(c1)C(=O)C(=O)N2Cc1ccc(OC)cc1 | > 10.6 | IC50 (PBLUC_HILL_SLOPE 0.721, PBLUC_R_SQUARED 0.0969, read-out: LUCIFERASE INFECTION ASSAY - IC50): > 10.6 µM
CS(=O)(=O)c1ncc(Cl)c(C(=O)C(C#N)c2nc3ccccc3s2)n1 (stereo not given) | 3.59 | IC50 [1]: 3.08 µM
